Data set [1] can be described thus: Solubility in organic solvents. The data set is classed as physicochemical. The following applies: for solubility in organic solvents (in words): all organic solvents; for solubility (in words): compared with methanol, ethanol and acetonitrile; for solubility: organic solvent or mixture.

Regarding `c1cc2c3oc(nc3c1)-c1cccc3nc(oc13)-c1cccc3nc(oc13)-c1cccc3nc-2oc13` [Compound 5, Cyclo-2,7′:2′,7″:2′″,7′″:2′″,7-quaterbenzoxazole], the “solubility in organic solvents (in words)” value in data set [1] is reported as “very limited solubility”.
Same read-out and setting: in the case of `c1cc2c3[nH]c(nc3c1)-c1cccc3nc([nH]c13)-c1cccc3nc([nH]c13)-c1cccc3nc-2[nH]c13` [Compound 8, Cyclo-2,4′:2′,7″:2″4′″:2′″,7-quaterbenzimidazole] it was “even lower solubility in organic solvents than compound (5)”.
For orientation: solubility means the concentration that dissolves in the medium under given conditions. By melting point is commonly meant the temperature of the solid-liquid transition. As for `c1cc(-c2cccc3nc(-c4nc5cccc(-c6cccc7ncoc67)c5o4)oc23)c2ocnc2c1` [Compound 13, 7,7′:2′,2″:7′″,7′″-Quaterbenzoxazole], the melting point was 358 to 362 °C. In data set [1] (in chloroform), the “solubility (in words)” value was “improved”. Further, in data set [1] (in dimethylformide), the “solubility (in words)” value was “improved”. In addition, in data set [1] (in acetonitrile), the solubility was less than 1 µM. In data set [1] (in ethanol), the solubility is less than 1 µM. Also, in data set [1] (in methanol), the solubility is less than 1 µM.

The values are drawn from US20050159596A1, “Cyclic compounds and their use as complex ligands” (Basf Aktiengesellschaft, priority 2002, published 2005).
